No end group written: not given here.
T1: human TAS1R2-R838K/TAS1R3-WT (Homo sapiens, UniProt Q7RTX0+Q8TE23, R838K)
T1 construct: expressed in transfected cells; host or cells: HEK293T-Gα16gust44
T1 sequence (Q8TE23 20-839 R838K): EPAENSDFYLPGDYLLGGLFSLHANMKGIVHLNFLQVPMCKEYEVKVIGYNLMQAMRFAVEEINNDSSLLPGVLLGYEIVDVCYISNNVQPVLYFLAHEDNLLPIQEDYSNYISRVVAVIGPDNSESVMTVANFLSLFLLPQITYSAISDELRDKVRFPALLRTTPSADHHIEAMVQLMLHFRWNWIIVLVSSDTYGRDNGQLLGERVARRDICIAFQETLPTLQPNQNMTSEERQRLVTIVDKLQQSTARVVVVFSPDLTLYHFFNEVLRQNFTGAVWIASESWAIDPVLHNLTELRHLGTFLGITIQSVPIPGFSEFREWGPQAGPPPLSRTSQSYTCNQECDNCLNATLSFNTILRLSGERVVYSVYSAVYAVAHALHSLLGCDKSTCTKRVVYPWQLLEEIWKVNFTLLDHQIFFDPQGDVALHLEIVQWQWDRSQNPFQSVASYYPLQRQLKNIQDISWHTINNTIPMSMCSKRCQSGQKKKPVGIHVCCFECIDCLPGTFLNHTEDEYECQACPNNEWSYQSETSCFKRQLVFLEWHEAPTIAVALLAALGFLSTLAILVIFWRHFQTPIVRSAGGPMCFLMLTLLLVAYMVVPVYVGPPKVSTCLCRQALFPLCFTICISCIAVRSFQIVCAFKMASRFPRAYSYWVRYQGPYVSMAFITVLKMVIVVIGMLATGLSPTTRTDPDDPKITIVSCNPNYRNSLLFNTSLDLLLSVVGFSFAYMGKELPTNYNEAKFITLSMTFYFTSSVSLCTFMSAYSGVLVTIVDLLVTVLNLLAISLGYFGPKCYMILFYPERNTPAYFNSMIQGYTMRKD
T1 sequence (Q7RTX0 21-852): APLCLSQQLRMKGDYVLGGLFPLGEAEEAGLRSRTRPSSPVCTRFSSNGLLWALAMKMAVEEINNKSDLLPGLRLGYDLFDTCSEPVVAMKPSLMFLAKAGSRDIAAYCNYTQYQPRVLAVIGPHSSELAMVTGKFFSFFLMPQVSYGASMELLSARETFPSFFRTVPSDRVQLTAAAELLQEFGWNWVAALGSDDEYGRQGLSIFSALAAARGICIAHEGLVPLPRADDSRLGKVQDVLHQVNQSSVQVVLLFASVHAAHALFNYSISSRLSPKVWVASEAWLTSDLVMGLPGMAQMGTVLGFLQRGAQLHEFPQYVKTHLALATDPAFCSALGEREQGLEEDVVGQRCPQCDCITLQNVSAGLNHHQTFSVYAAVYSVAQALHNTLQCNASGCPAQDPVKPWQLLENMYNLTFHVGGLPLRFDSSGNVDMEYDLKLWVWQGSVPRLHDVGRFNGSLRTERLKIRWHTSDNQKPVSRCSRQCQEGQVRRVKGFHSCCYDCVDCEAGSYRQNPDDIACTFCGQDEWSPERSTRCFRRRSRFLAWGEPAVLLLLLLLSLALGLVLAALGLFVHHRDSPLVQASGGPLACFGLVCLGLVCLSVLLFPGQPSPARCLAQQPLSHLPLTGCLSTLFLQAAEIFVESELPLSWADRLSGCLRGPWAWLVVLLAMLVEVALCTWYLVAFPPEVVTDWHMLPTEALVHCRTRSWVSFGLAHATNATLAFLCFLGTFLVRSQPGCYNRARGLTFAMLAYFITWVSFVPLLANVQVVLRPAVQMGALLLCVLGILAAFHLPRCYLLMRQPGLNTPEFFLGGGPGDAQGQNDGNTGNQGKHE


Target: T1, human TAS1R2-R838K/TAS1R3-WT
Test: Calcium mobilisation assay, TAS1R2 variant R838K with TAS1R3-WT
Type: cell-based
Conditions: for Max ΔF/F0: maximal signal amplitude
Excerpt: The coding sequences for TAS1R2 and TAS1R3 were commercially synthesised, and the human codon was optimised for expression in human cells. The coding sequences of human TAS1R2 and TAS1R3 were subcloned and inserted into the mammalian expression vectors pcDNA6/myc-HisA and pcDNA4/myc-HisA (Invitrogen; Thermo Fisher Scientific; Illkirch, France) between the EcoRI and NotI restriction sites, generating the plasmids pcDNA6-TAS1R2 and pcDNA4-TAS1R3, respectively. To increase protein expression in mammalian cells, an upstream start codon was used, which was a sequence called MAX, corresponding to the QBI SP163 element also described in pcDNA4-HisMax (Invitrogen; Thermo Fisher Scientific; Illkirch, France). To measure the expression level of the receptor by immunohistochemistry, we used the FLAG sequence ([…]) in the C-terminal position, which encodes the FLAG tag epitope. SNP variants of TAS1R2 and TAS1R3 were constructed based on […], respectively, using site-directed mutagenesis (Genewiz; Leipzig, Germany).
The HEK293T cells were kindly provided by Jay P. Slack (Givaudan Flavors Corporation; Cincinnati, OH, USA). HEK293T cells stably transfected with Gα16gust44 [43, 67] were seeded in poly-D-lysine-coated clear-bottom black 96-well plates (0.35 × 10^5 cells/well) in high-glucose DMEM supplemented with 2 mM GlutaMAX, 10% dialysed foetal bovine serum with penicillin/streptomycin and G418 (400 μg/mL) at 37 °C and 6.3% CO2 in a humidified atmosphere as previously reported. […] As a negative control, HEK293T cells were mock-transfected with the empty expression vector. After a further 24 h of incubation, the HEK293T cells were washed with C1 buffer (130 mM NaCl, 5 mM KCl, 10 mM HEPES pH 7.4 and 2 mM CaCl2). The 96-well plates containing the cells were then stimulated with sweet-tasting compounds. […] Different concentration ranges were tested depending on the sweet compound injected. The Ca^2+ changes were expressed as fractional changes in fluorescent light intensity: ΔF/F = (F − F0)/F0, where F was the fluorescent light intensity at each point, and F0 was the value of emitted fluorescent light prior to stimulus application. To calculate dose–response relationships, the changes in fluorescence upon stimulus application were averaged, mock-subtracted and baseline-corrected. The dose–response data obtained were adjusted using a 4-parameter logistic equation. The half-maximal effective concentrations (EC50 values) and maximal signal amplitudes were calculated using SigmaPlot software (version 15.0) (Systat Software; San Jose, CA, USA).
For in vitro calcium mobilisation assay performed on hTAS1R2-SNPs, hTAS1R3-SNPs and mTAS1R3-I60T, 6 to 7 concentrations were tested for each sweet compound, plus buffer alone. All concentration–receptor combinations were measured in duplicate, and each experiment was repeated at least 4 times (8 wells/concentration). Results were expressed for each concentration as ΔF/F mean ± SEM and represented as dose–response curves.

Molecule	EC50	R1 = Variant EC50/WT EC50	Max ΔF/F0
CC1=CC(=O)NS(=O)(=O)O1 [Acesulfame K, acesulfame K]	484 ± 47 µM	0.7	0.42 ± 0.02
O=S(=O)(O)NC1CCCCC1 [Cyclamate, cyclamate]	1730 ± 24 µM	–	–
C[C@H](CC[C@@H](O[C@@H]1O[C@H](CO[C@@H]2O[C@H](CO)[C@@H](O)[C@H](O)[C@H]2O)[C@@H](O)[C@H](O)[C@H]1O[C@@H]1O[C@H](CO)[C@@H](O)[C@H](O)[C@H]1O)C(C)(C)O)[C@H]1CC[C@@]2(C)[C@@H]3CC=C4[C@@H](CC[C@H](O[C@@H]5O[C@H](CO[C@@H]6O[C@H](CO)[C@@H](O)[C@H](O)[C@H]6O)[C@@H](O)[C@H](O)[C@H]5O)C4(C)C)[C@]3(C)[C@H](O)C[C@]12C [Mogroside V, mogroside V]	17.1 ± 0.9 µM	1.0	1.31 ± 0.02
COc1ccc(CCC(=O)c2c(O)cc(O[C@@H]3O[C@H](CO)[C@@H](O)[C@H](O)[C@H]3O[C@@H]3O[C@@H](C)[C@H](O)[C@@H](O)[C@H]3O)cc2O)cc1O [NHDC, neohesperidin dihydrochalcone]	75.8 ± 1.2 µM	1.0	0.79 ± 0.05
COC(=O)[C@H](Cc1ccccc1)NC(=O)[C@H](CC(=O)O)NCCC(C)(C)C [Neotame]	0.66 ± 0.05 µM	0.8	0.75 ± 0.02
C=C(C)[C@@H]1CC=C(/C=N/O)CC1 [Perillartine, perillartine]	19.1 ± 1.2 µM	1.1	1.45 ± 0.03
C=C1C[C@@]23CC[C@H]4[C@@](C)(CCC[C@@]4(C)C(=O)O[C@@H]4O[C@H](CO)[C@@H](O)[C@H](O[C@@H]5O[C@H](CO)[C@@H](O)[C@H](O)[C@H]5O)[C@H]4O[C@@H]4O[C@H](CO)[C@@H](O)[C@H](O)[C@H]4O)[C@@H]2CC[C@]1(O[C@@H]1O[C@H](CO)[C@@H](O)[C@H](O[C@@H]2O[C@H](CO)[C@@H](O)[C@H](O)[C@H]2O)[C@H]1O[C@@H]1O[C@H](CO)[C@@H](O)[C@H](O)[C@H]1O)C3 [Rebaudioside M, rebaudioside M]	18.2 ± 1.1 µM	1.1	1.20 ± 0.01
OC[C@H]1O[C@H](O[C@]2(CCl)O[C@H](CCl)[C@@H](O)[C@@H]2O)[C@H](O)[C@@H](O)[C@H]1Cl [Sucralose]	82 ± 6 µM	0.9	0.75 ± 0.02
brazzein (QDKCKKVYENYPVSKCQLANQCNYDCKLDKHARSGECFYDEKRNLQCICDYCEY; ends and bridges not checked; cysteine pairing not given here; UniProt P56552 1-54, looked up) [sweet-tasting protein obtained by recombinant production using the yeast Pichia pastoris]	–	1.2	1.2 ± 0.03
thaumatin	–	1.4	1.3 ± 0.02
thaumatin (protein, Eight disulfides, sweet-tasting plant protein, E957) ATFEIVNRCSYTVWAAASKGDAALDAGGRQLNSGESWTINVEPGTKGGKIWARTDCYFDDSGSGICKTGDCGGLLRCKRFGRPPTTLAEFSLNQYGKDYIDISNIKGFNVPMDFSPTTRGCRGVRCAADIVGQCPAKLKAPGGGCNDACTVFQTSEYCCTTGKCGPTEYSRFFKRLCPDAFSYVLDKPTTVTCPGSSNYRVTFCPTA	10.4 ± 0.2 µM	–	–

Reference: article PMC11945486, “TAS1R2/TAS1R3 Single-Nucleotide Polymorphisms Affect Sweet Taste Receptor Activation by Sweeteners: The SWEET Project” (Nutrients, 2025)
